Data reported in PubChem BioAssay AID330 (DTP/NCI, 2004).
Values joined by “and” are separate entries in the source; they are usually repeats but may differ in a detail not shown here. Identical values can stand only once. Inconclusive results and toxic doses are left out. Peptide text beside a SMILES is read from it. * marks the point of attachment. Cbz = O=C(OCc1ccccc1)*; βAla = NCCC(=O)O

System: P388 leukemia ip, CD2F1 mice, survival T/C
Test: NCI In Vivo Anticancer Drug Screen. Data for tumor model P388 Leukemia (intraperitoneal) in CD2F1 (CDF1) mice
Settings: endpoint: median survival time, higher = longer survival
In short: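 Mice carrying the transplanted tumor received test compound or vehicle. Survival was recorded in each group, and the value is the treated-group measurement divided by that of the vehicle-treated control group.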

[1] = dose: 50.0 mg/kg/injection, schedule: Q01DX009 (ip), vehicle: Klucel (hydroxypropylcellulose) (HPC)
[2] = dose: 60.0 mg/kg/injection, schedule: Q01DX005 (ip), vehicle: saline
[3] = dose: 120.0 mg/kg/injection, schedule: Q01DX005 (ip), vehicle: saline
[4] = dose: 240.0 mg/kg/injection, schedule: Q01DX005 (ip), vehicle: saline
[5] = dose: 50.0 mg/kg/injection, schedule: Q01DX005 (ip), vehicle: saline with Tween-80
[6] = dose: 100.0 mg/kg/injection, schedule: Q01DX005 (ip), vehicle: saline with Tween-80
[7] = dose: 200.0 mg/kg/injection, schedule: Q01DX005 (ip), vehicle: saline with Tween-80
[8] = dose: 50.0 mg/kg/injection, schedule: Q01DX005 (ip), vehicle: Klucel (hydroxypropylcellulose) (HPC)
[9] = dose: 100.0 mg/kg/injection, schedule: Q01DX005 (ip), vehicle: Klucel (hydroxypropylcellulose) (HPC)
[10] = dose: 200.0 mg/kg/injection, schedule: Q01DX005 (ip), vehicle: Klucel (hydroxypropylcellulose) (HPC)
[11] = dose: 60.0 mg/kg/injection, schedule: Q01DX005 (ip), vehicle: saline with Tween-80
[12] = dose: 120.0 mg/kg/injection, schedule: Q01DX005 (ip), vehicle: saline with Tween-80
[13] = dose: 240.0 mg/kg/injection, schedule: Q01DX005 (ip), vehicle: saline with Tween-80
[14] = dose: 60.0 mg/kg/injection, schedule: Q01DX005 (ip), vehicle: Klucel (hydroxypropylcellulose) (HPC)
[15] = dose: 120.0 mg/kg/injection, schedule: Q01DX005 (ip), vehicle: Klucel (hydroxypropylcellulose) (HPC)
[16] = dose: 240.0 mg/kg/injection, schedule: Q01DX005 (ip), vehicle: Klucel (hydroxypropylcellulose) (HPC)
[17] = dose: 100.0 mg/kg/injection, schedule: Q04DX002 (ip), vehicle: saline with Tween-80
[18] = dose: 200.0 mg/kg/injection, schedule: Q04DX002 (ip), vehicle: saline with Tween-80

## N#Cc1ccc(NC(=O)CCCC(=O)Nc2ccc(C#N)c(C#N)c2)cc1C#N
[1]
  T/C: 97 % of control
dose: 100.0 mg/kg/injection, schedule: Q01DX009 (ip), vehicle: Klucel (hydroxypropylcellulose) (HPC)
  T/C: 94 % of control
dose: 200.0 mg/kg/injection, schedule: Q01DX009 (ip), vehicle: Klucel (hydroxypropylcellulose) (HPC)
  T/C: 96 % of control

## O=C1c2ccncc2C(=O)N1CCO
[2]
  T/C: 103 % of control
[3]
  T/C: 104 % of control
[4]
  T/C: 101 % of control

## O=C(O)CNC(=O)CNC(=O)CCNC(=O)OCc1ccccc1 ({Cbz-βAla}-Gly-Gly-OH)
[5]
  T/C: 101 % of control
[6]
  T/C: 97 % of control
[7]
  T/C: 108 % of control

## O=C(NCCNC(=O)c1cccnc1)c1cccnc1
[5]
  T/C: 118 % of control
[6]
  T/C: 108 % of control
[7]
  T/C: 111 % of control

## CCOC(=O)Nc1nc2ccccc2n1CN1CCCCC1
dose: 25.0 mg/kg/injection, schedule: Q01DX005 (ip), vehicle: Klucel (hydroxypropylcellulose) (HPC)
  T/C: 97 % of control
[8]
  T/C: 100 % of control
[9]
  T/C: 106 % of control
[10]
  T/C: 115 % of control

## c1ccc2c(c1)[nH]c1c(N3CCOCC3)nnc(N3CCOCC3)c12
[8]
  T/C: 99 % of control
[11]
  T/C: 103 % of control
[9]
  T/C: 98 % of control
[12]
  T/C: 96 % of control
[10]
  T/C: 98 % of control
[13]
  T/C: 90 % of control

## O=C(O)c1ccc2n[se]nc2c1
[11]
  T/C: 96 % of control
[12]
  T/C: 105 % of control
[13]
  T/C: 97 % of control

## C[n+]1ccc2ccccc2c1C#N
dose: 12.5 mg/kg/injection, schedule: Q04DX003 (ip), vehicle: saline
  T/C: 106 % of control
dose: 25.0 mg/kg/injection, schedule: Q04DX003 (ip), vehicle: saline
  T/C: 98 % of control

## FC(F)(F)c1nc(SCc2ccc(Cl)cc2)n[nH]1
dose: 30.0 mg/kg/injection, schedule: Q01DX005 (ip), vehicle: Klucel (hydroxypropylcellulose) (HPC)
  T/C: 103 % of control
[14]
  T/C: 96 % of control
[15]
  T/C: 98 % of control
[16]
  T/C: 102 % of control

## CS(=O)(=O)OCCN(CCOS(C)(=O)=O)c1ccc(C=Nc2ccc(-c3csc(COc4ccccc4)n3)cc2)cc1
dose: 12.5 mg/kg/injection, schedule: Q01DX009 (ip), vehicle: Klucel (hydroxypropylcellulose) (HPC)
  T/C: 150 % of control and 151 % of control
dose: 25.0 mg/kg/injection, schedule: Q01DX009 (ip), vehicle: Klucel (hydroxypropylcellulose) (HPC)
  T/C: 151 % of control and 154 % of control and 164 % of control
dose: 25.0 mg/kg/injection, schedule: Q01DX009 (oral), vehicle: Klucel (hydroxypropylcellulose) (HPC)
  T/C: 101 % of control and 104 % of control
[1]
  T/C: 162 % of control and 164 % of control and 166 % of control
dose: 50.0 mg/kg/injection, schedule: Q01DX009 (oral), vehicle: Klucel (hydroxypropylcellulose) (HPC)
  T/C: 101 % of control and 106 % of control
dose: 100.0 mg/kg/injection, schedule: Q01DX009 (oral), vehicle: Klucel (hydroxypropylcellulose) (HPC)
  T/C: 102 % of control and 108 % of control
dose: 200.0 mg/kg/injection, schedule: Q01DX009 (oral), vehicle: Klucel (hydroxypropylcellulose) (HPC)
  T/C: 107 % of control
dose: 400.0 mg/kg/injection, schedule: Q01DX009 (ip), vehicle: Klucel (hydroxypropylcellulose) (HPC)
  T/C: 112 % of control
dose: 400.0 mg/kg/injection, schedule: Q01DX009 (oral), vehicle: Klucel (hydroxypropylcellulose) (HPC)
  T/C: 109 % of control
dose: 800.0 mg/kg/injection, schedule: Q01DX009 (oral), vehicle: Klucel (hydroxypropylcellulose) (HPC)
  T/C: 109 % of control

## [Ni+2].[O-]/C(=N\N=C/c1ccco1)c1ccccc1O.[O-]/C(=N\N=C/c1ccco1)c1ccccc1O
dose: 50.0 mg/kg/injection, schedule: Q04DX002 (ip), vehicle: saline with Tween-80
  T/C: 86 % of control
[17]
  T/C: 93 % of control
[18]
  T/C: 93 % of control

## C(=N\Nc1nnc2c(n1)[nH]c1ccccc12)/c1ccccc1
[17]
  T/C: 89 % of control
[18]
  T/C: 90 % of control
dose: 400.0 mg/kg/injection, schedule: Q04DX002 (ip), vehicle: saline with Tween-80
  T/C: 98 % of control

## CCOC(=O)NCCCl
dose: 5.0 mg/kg/injection, schedule: Q01DX009 (ip), vehicle: saline with Tween-80
  T/C: 104 % of control
dose: 10.0 mg/kg/injection, schedule: Q01DX009 (ip), vehicle: saline with Tween-80
  T/C: 107 % of control
dose: 20.0 mg/kg/injection, schedule: Q01DX009 (ip), vehicle: saline with Tween-80
  T/C: 101 % of control
dose: 50.0 mg/kg/injection, schedule: Q01DX008 (ip), vehicle: saline
  T/C: 95 % of control
dose: 100.0 mg/kg/injection, schedule: Q01DX008 (ip), vehicle: saline
  T/C: 98 % of control
dose: 200.0 mg/kg/injection, schedule: Q01DX008 (ip), vehicle: saline
  T/C: 107 % of control
dose: 400.0 mg/kg/injection, schedule: Q01DX008 (ip), vehicle: saline
  T/C: 101 % of control

## NC(C(=O)O)C(CC(=O)O)c1ccc(O)cc1 (stereo not drawn)
dose: 50.0 mg/kg/injection, schedule: Q01DX007 (ip), vehicle: saline
  T/C: 100 % of control
dose: 100.0 mg/kg/injection, schedule: Q01DX007 (ip), vehicle: saline
  T/C: 100 % of control
dose: 200.0 mg/kg/injection, schedule: Q01DX007 (ip), vehicle: saline
  T/C: 101 % of control

## Cc1ccc(S(=O)(=O)C23N=NC(C)(C)C2N=NC3(C)C)cc1 (stereo not drawn)
[14]
  T/C: 101 % of control
[15]
  T/C: 100 % of control
[16]
  T/C: 98 % of control

## COc1ccc(-c2[nH]c(=O)c(C#N)c(C(=O)NN)c2-c2ccc(OC)cc2)cc1
[11]
  T/C: 112 % of control
[12]
  T/C: 100 % of control
[13]
  T/C: 89 % of control

## COc1ccc(C(=O)Cc2nc3nnc(N)n3nc2CC(=O)c2ccc(OC)cc2)cc1
[2]
  T/C: 96 % of control
[3]
  T/C: 100 % of control
[4]
  T/C: 100 % of control

## CSC(=O)/N=C(/NC(=O)c1ccccc1)SC
[8]
  T/C: 93 % of control
[9]
  T/C: 91 % of control
[10]
  T/C: 92 % of control

## COc1ccc2[nH]c(C)cc2c1CN
dose: 3.12 mg/kg/injection, schedule: Q01DX009 (ip), vehicle: saline
  T/C: 113 % of control
dose: 6.25 mg/kg/injection, schedule: Q01DX009 (ip), vehicle: saline
  T/C: 101 % of control
dose: 12.5 mg/kg/injection, schedule: Q01DX009 (ip), vehicle: saline
  T/C: 112 % of control

## CCc1nc2ccccc2c(=O)n1C(C)C
dose: 100.0 mg/kg/injection, schedule: Q04DX002 (ip), vehicle: saline
  T/C: 100 % of control
dose: 200.0 mg/kg/injection, schedule: Q04DX002 (ip), vehicle: saline
  T/C: 106 % of control
dose: 400.0 mg/kg/injection, schedule: Q04DX002 (ip), vehicle: saline
  T/C: 104 % of control

## CC(C)C[N+]1(Cc2ccc(Cl)c(Cl)c2)CCOCC1
[17]
  T/C: 99 % of control
[18]
  T/C: 108 % of control

## Cc1nnn(NC(=O)Cc2ccccc2)c1C
dose: 100.0 mg/kg/injection, schedule: Q01DX001 (ip), vehicle: Klucel (hydroxypropylcellulose) (HPC)
  T/C: 98 % of control
dose: 200.0 mg/kg/injection, schedule: Q01DX001 (ip), vehicle: Klucel (hydroxypropylcellulose) (HPC)
  T/C: 99 % of control
dose: 400.0 mg/kg/injection, schedule: Q01DX001 (ip), vehicle: Klucel (hydroxypropylcellulose) (HPC)
  T/C: 99 % of control

## COC1/C=C/OC2(C)Oc3c(C)c(O)c4c(O)c(c(/C=N\N(C)C56CC7CC(CC(C7)C5)C6)c(O)c4c3C2=O)NC(=O)C(C)=C/C=C/C(C)C(O)C(C)C(O)C(C)C(OC(C)=O)C1C (stereo not drawn)
[14]
  T/C: 93 % of control
[15]
  T/C: 96 % of control
[16]
  T/C: 102 % of control

## CCC/C=[CH]/[Hg][Cl]
dose: 6.25 mg/kg/injection, schedule: Q04DX003 (ip), vehicle: other
  T/C: 110 % of control
dose: 12.5 mg/kg/injection, schedule: Q04DX003 (ip), vehicle: other
  T/C: 110 % of control

## CCOC(=O)C1=C(C)N[C@@H](c2ccccc2[N+](=O)[O-])N[C@H]1c1ccccc1[N+](=O)[O-]
[8]
  T/C: 101 % of control
[9]
  T/C: 101 % of control
[10]
  T/C: 92 % of control
